Measurements taken from patent US7196063B1, “Peptides and pharmaceutical compositions comprising same” (NST NeuroSurvival Technologies Ltd., priority 1999, dated 2007).
Read-outs that look alike come from different tables or passages of the source.

Experiments:
apoptotic HeLa cells = test system: apoptotic HeLa cells
Method: One of the final steps of both intrinsic and extrinsic path-ways of coagulation, is the generation of thrombin from prothrombin. Thrombin is the final protease generated in the sequence of coagulation reaction, and its activity entails conversion of fibrinogen to fibrin, thus forming the clot. Generation of thrombin on the pro-coagulant surface of apoptotic cells was assayed (according to Bombeli T. et al., 1997, Blood 89(7), 2429–2442), by determining its activity, using the chromogenic substrate S-2366 (from Chromogenix, Sweden). Samples of pro-coagulant cells (HeLa cells treated with 500 μM of DA for 18 hours) were used for the assay. Reaction mixture, in a plastic 1 ml cuvette, contained 100 μl of cells (1.5×10^5), 350 μl of HBS (150 mM NaCl, 10 mM Hepes pH 7), and 150 μl of normal control plasma, that was re-calcified with 300 μl of 25 mM CaCl2. The reaction was started by addition of the substrate S-2366 to a final concentration of 0.2 mM, and the kinetics of thrombin activity was determined by optical density at OD405. Data was collected and analyzed by the Swift kinetics software (Pharmacia).

thrombin = biological target: T1, thrombin (Homo sapiens, UniProt P00734); assay: Direct effect on thrombin activity in vitro; assay type: biochemical; conditions: commercially available thrombin and chromogenic substrate; not shown
T1 construct: purchased

Myristate-KVSFFCKNKEKKC-K (SEQ ID NO:1) (biotin) [NST513]
change of time needed for obtaining 50% of thrombin activity (factor) (apoptotic HeLa cells; 5 μM): 1.5 | change of time needed for obtaining 50% of thrombin activity (factor) (apoptotic HeLa cells; 10 μM): 2.6 | thrombin generation by apoptotic cells (apoptotic HeLa cells; 10 μM): rate of thrombin generation was also inhibited | thrombin generation by apoptotic cells (apoptotic HeLa cells; 25 μM): fully block | thrombin activity (reflecting thrombin generation), dose response (apoptotic HeLa cells; 5–50 μM): effectively inhibited | thrombin generation by apoptotic cells (apoptotic HeLa cells; 25–50μM): Total blockage of thrombin generation | direct effect on thrombin activity (thrombin): no direct inhibitory effect on thrombin activity
